The target in one assay is T1, mutant MGL (Homo sapiens, UniProt Q99685, L169S/L176S).
T1 sequence (Q99685 1-303 L169S/L176S): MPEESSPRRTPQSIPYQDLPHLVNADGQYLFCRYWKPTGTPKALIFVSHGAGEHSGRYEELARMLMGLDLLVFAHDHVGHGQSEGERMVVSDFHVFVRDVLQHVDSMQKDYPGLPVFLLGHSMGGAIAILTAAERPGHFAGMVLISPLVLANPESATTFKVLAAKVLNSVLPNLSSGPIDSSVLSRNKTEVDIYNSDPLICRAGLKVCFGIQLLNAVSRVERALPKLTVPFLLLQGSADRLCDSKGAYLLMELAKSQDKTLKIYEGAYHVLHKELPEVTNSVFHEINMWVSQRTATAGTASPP
The assay is described as follows: MGL ThermoFluor assay - mutant. It counts as binding. (In general: In DSF a fluorescence change marks the thermal transition of the protein.)

Another assay concerns the target T2, MGL (Rattus norvegicus, UniProt Q8R431).
T2 construct: one g rat brain was homogenized using a Polytron homogenizer; from tissue; host or cells: rat brain homogenate
T2 sequence (Q8R431 1-303): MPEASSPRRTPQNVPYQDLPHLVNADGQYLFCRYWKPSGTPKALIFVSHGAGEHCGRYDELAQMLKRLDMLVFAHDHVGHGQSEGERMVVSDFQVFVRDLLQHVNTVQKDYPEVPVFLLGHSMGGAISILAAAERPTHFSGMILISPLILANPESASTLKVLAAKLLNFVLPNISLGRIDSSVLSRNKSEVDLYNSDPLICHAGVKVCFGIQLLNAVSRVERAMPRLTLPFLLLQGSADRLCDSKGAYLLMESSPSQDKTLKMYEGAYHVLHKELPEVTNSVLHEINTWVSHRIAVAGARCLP
The assay is described as follows: 2-AG accumulation assay in rat brain homogenate. It counts as biochemical. Conditions: rat brain homogenate, 2-AG accumulation as percent of vehicle; for 2-AG accumulation, % of vehicle control at 1 µM: read-out: Rat Brain 2AG % VehCntrl (%) @ 1 μM; for 2-AG accumulation, % of vehicle control at 10 µM: compound 10 μM, read-out: Rat Brain 2AG % VehCntrl (%) @ 10 μM.

[1] abbreviates: ThermoFluor concentration-response, read-out: MGL mutant ThermoFluor Kd.
Where [2] appears, read: ThermoFluor, compound concentration measured by qNMR, read-out: MGL mutant ThermoFluor qKd (μM) (using qNMR conc.).
[3] abbreviates: ThermoFluor thermal stability binding assay, read-out: MGL mutant ThermoFluor Kd.

Where two headings read alike, the source gives them in different places.

On to `O=C(c1ccccc1)N1CCN(C2CN(C(=O)c3ccc(-c4ccc(Br)cc4)cc3)C2)CC1` [Cpd 83, 1-{1-[(4′-Bromobiphenyl-4-yl)carbonyl]azetidin-3-yl}-4-(phenylcarbonyl)piperazine], for which, at mutant MGL (setting [1]), the Kd was found to be 0.111 µM. The 2-AG accumulation, % of vehicle control at 1 µM on MGL (compound 1 μM) was determined as 105%.
Take `O=C(c1ccc(SCc2cccnc2)cc1)N1CC(N2CCN(C(=O)c3nccs3)CC2)C1` [Cpd 416]: the Kd on mutant MGL (setting [1]) was determined as 0.16 µM. Besides, the 2-AG accumulation, % of vehicle control at 1 µM on MGL (compound 1 μM) turned out to be 228%.
As for `O=C(c1ccccc1)N1CCN(C2CN(C(=O)c3ccc(SCc4cccc(Cl)c4Cl)cc3)C2)CC1` [Cpd 411, 1-[1-({4-[(2,3-Dichlorobenzyl)sulfanyl]phenyl}carbonyl)azetidin-3-yl]-4-(phenylcarbonyl)piperazine], the Kd on mutant MGL (setting [1]) is 0.0333 µM. For the same compound, on MGL, the 2-AG accumulation, % of vehicle control at 10 µM worked out at 741%.
Consider `N#Cc1cccc(-n2ccc3cc(C(=O)N4CC(N5CCN(C(=O)c6nccs6)CC5)C4)ccc32)c1` [Cpd 1113], for which the Kd on mutant MGL (setting [2]) was found to be 0.01 µM. On MGL (compound 1 μM), the 2-AG accumulation, % of vehicle control at 1 µM was determined as 819%.
`Cc1cc(C(=O)N2CC(N3CCN(C(=O)c4ccccc4)CC3)C2)ccc1-c1cccc(C(F)(F)F)c1` [Cpd 243, 1-(1-{[2-Methyl-3′-(trifluoromethyl)biphenyl-4-yl]carbonyl}azetidin-3-yl)-4-(phenylcarbonyl)piperazine]: the Kd on mutant MGL (setting [3]) turned out to be 0.0167 µM. Further, the 2-AG accumulation, % of vehicle control at 1 µM at MGL (compound 1 μM) is 120%.
Regarding `O=C(c1nccs1)N1CCN(C2CN(C(=O)[C@@H]3C[C@H]3c3ccccc3Cl)C2)CC1` (racemic) [Cpd 642], at mutant MGL (setting [1]), the Kd worked out at 0.499 µM. The 2-AG accumulation, % of vehicle control at 1 µM on MGL (compound 1 μM) stood at 170%.
Consider `O=C(c1ccc2oc(-c3ccccc3)nc2c1)N1CC(N2CCN(C(=O)c3cscn3)CC2)C1` [Cpd 1382, 2-Phenyl-5-({3-[4-(1,3-thiazol-4-ylcarbonyl)piperazin-1-yl]azetidin-1-yl}carbonyl)-1,3-benzoxazole], for which, at mutant MGL (setting [1]), the Kd stood at 0.197 µM. Moreover, at MGL, the 2-AG accumulation, % of vehicle control at 10 µM is 293%.
Consider `O=C(c1ccccc1)N1CCN(C2CN(C(=O)c3ccc(-c4ccc(Cl)c(C(F)(F)F)c4)cc3Cl)C2)CC1` [Cpd 268, 1-(1-{[3,4′-Dichloro-3′-(trifluoromethyl)biphenyl-4-yl]carbonyl}azetidin-3-yl)-4-(phenylcarbonyl)piperazine], for which the Kd on mutant MGL (setting [3]) amounted to 0.025 µM. Further, the 2-AG accumulation, % of vehicle control at 1 µM on MGL (compound 1 μM) was determined as 110%.
As for `COc1cc(C(=O)N2CC(N3CCN(C(=O)c4ccccc4)CC3)C2)ccc1-c1ccccc1` [Cpd 615], the Kd at mutant MGL (setting [1]) stood at 0.097 µM. The 2-AG accumulation, % of vehicle control at 1 µM on MGL (compound 1 μM) is 123%.
`CS(=O)(=O)N1CCCc2cc(C(=O)N3CC(N4CCN(C(=O)c5nccs5)CC4)C3)ccc21` [Cpd 361]: at mutant MGL (setting [3]), the Kd was determined as 0.144 µM. The 2-AG accumulation, % of vehicle control at 1 µM on MGL (compound 1 μM) is 186%.
For `O=C(c1ccccc1)N1CCN(C2CN(C(=O)c3ccc(COc4cccc(Cl)c4)cc3)C2)CC1` [Cpd 548], the Kd at mutant MGL (setting [1]) was found to be 0.062 µM. The 2-AG accumulation, % of vehicle control at 1 µM at MGL (compound 1 μM) was 280%.
Turning to `O=C(c1ccc2c(c1)CCCN2S(=O)(=O)c1ccccc1)N1CC(N2CCN(C(=O)c3nccs3)CC2)C1` [Cpd 366, 1-(Phenylsulfonyl)-6-({3-[4-(1,3-thiazol-2-ylcarbonyl)piperazin-1-yl]azetidin-1-yl}carbonyl)-1,2,3,4-tetrahydroquinoline], the Kd at mutant MGL (setting [3]) worked out at 0.0353 µM. Moreover, the 2-AG accumulation, % of vehicle control at 1 µM at MGL (compound 1 μM) was determined as 432%.
Consider `O=C(c1ccc(Cc2ccccc2)cc1)N1CCN(C2CN(C(=O)c3ccccc3)C2)CC1` [Cpd 61, 1-[(4-Benzylphenyl)carbonyl]-4-[1-(phenylcarbonyl)azetidin-3-yl]piperazine], for which the Kd at mutant MGL (setting [1]) came to 0.029 µM. In addition, the 2-AG accumulation, % of vehicle control at 10 µM at MGL came to 604%.
On to `Cc1cc(C(=O)N2CC(N3CCN(C(=O)c4ccccc4)CC3)C2)ccc1-c1ccccc1` [Cpd 613], for which the Kd at mutant MGL (setting [1]) worked out at 0.051 µM. Besides, the 2-AG accumulation, % of vehicle control at 1 µM on MGL (compound 1 μM) stood at 165%.
Turning to `O=C(c1cc[nH]c1)N1CCN(C2CN(C(=O)c3ccc(-c4ccccc4)cc3)C2)CC1` [Cpd 311, 1-[1-(Biphenyl-4-ylcarbonyl)azetidin-3-yl]-4-(1H-pyrrol-3-ylcarbonyl)piperazine], at mutant MGL (setting [3]), the Kd turned out to be 0.08 µM. Further, the 2-AG accumulation, % of vehicle control at 1 µM on MGL (compound 1 μM) came to 125%.
`O=C(c1nccs1)N1CCN(C2CN(C(=O)c3sc4cc(F)ccc4c3Cl)C2)CC1` [Cpd 930]: at mutant MGL (setting [3]), the Kd amounted to 0.005 µM. The 2-AG accumulation, % of vehicle control at 1 µM at MGL (compound 1 μM) amounted to 807%.
Take `O=C(c1ccc2c(cnn2-c2cccc(F)c2)c1)N1CC(N2CCN(C(=O)c3nccs3)CC2)C1` [Cpd 1110]: at mutant MGL (setting [2]), the Kd stood at 0.01 µM. Besides, the 2-AG accumulation, % of vehicle control at 1 µM on MGL (compound 1 μM) was determined as 807%.
`[2H]c1c([2H])c([2H])c(C(=O)N2CCN(C3CN(C(=O)c4ccc(-c5cccc(C(F)(F)F)c5)cc4)C3)CC2)c([2H])c1[2H]` [Cpd 186-A]: the Kd at mutant MGL (setting [3]) was 0.016 µM. In addition, the 2-AG accumulation, % of vehicle control at 1 µM on MGL (compound 1 μM) came out at 149%.
For `O=C(c1ccccc1)N1CCN(C2CN(C(=O)c3ccc4c(c3)CCN(C(=O)C3CCCCC3)C4)C2)CC1` [Cpd 350, 2-(Cyclohexylcarbonyl)-6-({3-[4-(phenylcarbonyl)piperazin-1-yl]azetidin-1-yl}carbonyl)-1,2,3,4-tetrahydroisoquinoline], the 2-AG accumulation, % of vehicle control at 10 µM at MGL was found to be 498%.
Turning to `Cc1c(C(=O)N2CC(N3CCN(C(=O)c4ccns4)CC3)C2)sc2cc(C(F)(F)F)ccc12` [Cpd 692], at MGL (compound 1 μM), the “Rat Brain 2AG % VehCntrl (%) @ 1 μM” value worked out at 284%.
`NC(=O)c1ccc(-n2ccc3cc(C(=O)N4CC(N5CCN(C(=O)c6nccs6)CC5)C4)ccc32)cc1` [Cpd 1171]: the 2-AG accumulation, % of vehicle control at 1 µM at MGL (compound 1 μM) stood at 839%.
Take `O=C(c1ccc(-c2cccc3ncccc23)cc1)N1CC(N2CCN(C(=O)c3nccs3)CC2)C1` [Cpd 184, 5-[4-({3-[4-(1,3-Thiazol-2-ylcarbonyl)piperazin-1-yl]azetidin-1-yl}carbonyl)phenyl]quinoline]: the 2-AG accumulation, % of vehicle control at 10 µM on MGL was 956%.
Still for that read-out and setting: the figure for `O=C(c1ccc(-c2cccc(O)c2)cc1)N1CC(N2CCN(C(=O)c3nccs3)CC2)C1` [Cpd 218, 4′-({3-[4-(1,3-Thiazol-2-ylcarbonyl)piperazin-1-yl]azetidin-1-yl}carbonyl)biphenyl-3-ol] is 764%; for `COc1ccc(-c2ccc(C(=O)N3CC(N4CCN(C(=O)c5nccs5)CC4)C3)cc2)cc1C=O` [Cpd 216, 4-Methoxy-4′-({3-[4-(1,3-thiazol-2-ylcarbonyl)piperazin-1-yl]azetidin-1-yl}carbonyl)biphenyl-3-carbaldehyde] it is 625%.
On the same count and under the same terms, the result for `O=Cc1cccc(-c2ccc(C(=O)N3CC(N4CCN(C(=O)c5nccs5)CC4)C3)cc2)c1` [Cpd 210, 4′-({3-[4-(1,3-Thiazol-2-ylcarbonyl)piperazin-1-yl]azetidin-1-yl}carbonyl)biphenyl-3-carbaldehyde] reads 122%; that for `N#CCc1cccc(-c2ccc(C(=O)N3CC(N4CCN(C(=O)c5nccs5)CC4)C3)cc2)c1` [Cpd 207, [4′-({3-[4-(1,3-Thiazol-2-ylcarbonyl)piperazin-1-yl]azetidin-1-yl}carbonyl)biphenyl-3-yl]acetonitrile], 402%.
Regarding `O=C(c1ccccc1)N1CCN(C2CN(C(=O)c3ccc(S(=O)(=O)c4cccc(Cl)c4)cc3)C2)CC1` [Cpd 433, 1-[1-({4-[(3-Chlorophenyl)sulfonyl]phenyl}carbonyl)azetidin-3-yl]-4-(phenylcarbonyl)piperazine], the 2-AG accumulation, % of vehicle control at 1 µM on MGL (compound 1 μM) was 159%.

Source of the values: patent US8362000B2, “Azetidinyl diamides as monoacylglycerol lipase inhibitors” (Janssen Pharmaceutica NV, priority 2009, dated 2013).
